# Biological target: T1, human GPR139 (Homo sapiens, UniProt Q6DWJ6)
# T1 construct: expressed in transfected cells; host or cells: CHO-TREx (Life Technologies) cells, expression induced with doxycycline
# T1 sequence (Q6DWJ6 1-353): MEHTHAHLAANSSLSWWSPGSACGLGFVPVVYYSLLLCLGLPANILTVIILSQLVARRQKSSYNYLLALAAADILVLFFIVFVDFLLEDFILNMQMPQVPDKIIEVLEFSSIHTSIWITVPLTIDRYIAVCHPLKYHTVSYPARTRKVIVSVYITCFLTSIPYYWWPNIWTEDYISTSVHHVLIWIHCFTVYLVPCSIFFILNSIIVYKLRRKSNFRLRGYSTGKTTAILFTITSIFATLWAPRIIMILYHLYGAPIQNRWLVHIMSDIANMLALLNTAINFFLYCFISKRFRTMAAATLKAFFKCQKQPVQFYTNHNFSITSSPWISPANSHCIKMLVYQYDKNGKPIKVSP
# Assay: Inhibition rate of the amount of IP1 in GPR139-expressed CHO cells (inverse agonist assay, Test Example 2)
# Format: cell-based
# Conditions: CHO, relative value, inhibition rate of Example Compound 2 in Test Example 1 defined as 100%
# Method in brief: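 IP1 accumulation read by IP-One HTRF after 40 min compound exposure at 37° C in stimulation buffer, 2000 cells/well, GPR139 expression induced the day before with doxycycline. Results given as relative inhibition rate, normalised to a reference compound set at […].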
row,Compound,inhibition at 30 µM
1,"CCn1cc(Cn2cc(C)n(-c3cc(N4CCOC(C)(C)C4)cc(C(F)(F)F)c3)c2=O)cn1 [Example 29, 3-[3-(2,2-dimethylmorpholin-4-yl)-5-(trifluoromethyl)phenyl]-1-[(1-ethyl-1H-pyrazol-4-yl)methyl]-4-methyl-1,3-dihydro-2H-imidazol-2-one]",99%
2,"CCn1cc(Cn2c(C)cn(-c3cc(N4CCOC(F)(F)C4)cc(C(F)(F)F)c3F)c2=O)cn1 [Example 54, 1-[5-(2,2-difluoromorpholin-4-yl)-2-fluoro-3-(trifluoromethyl)phenyl]-3-[(1-ethyl-1H-pyrazol-4-yl)methyl]-4-methyl-1,3-dihydro-2H-imidazol-2-one]",101%
3,"CC(C)n1cc(Cn2ccn(-c3cc(N(C)C4CCOCC4)cc(C(F)(F)F)c3F)c2=O)cn1 [Example 61, 1-{2-fluoro-5-[methyl(oxan-4-yl)amino]-3-(trifluoromethyl)phenyl}-3-{[1-(propan-2-yl)-1H-pyrazol-4-yl]methyl}-1,3-dihydro-2H-imidazol-2-one]",102%
4,"CCn1cc(Cn2cc(C)n(-c3cc(Oc4ccc(F)cc4)cc(C(F)(F)F)c3)c2=O)cn1 [Example 5, 1-[(1-ethyl-1H-pyrazol-4-yl)methyl]-3-[3-(4-fluorophenoxy)-5-(trifluoromethyl)phenyl]-4-methyl-1,3-dihydro-2H-imidazol-2-one]",99%
5,"CCn1cc(Cn2ccn(-c3nc(N4CCO[C@H](C)C4)cc(C(F)(F)F)c3C)c2=O)cn1 [Example 42, 1-[(1-ethyl-1H-pyrazol-4-yl)methyl]-3-{3-methyl-6-[(2R)-2-methylmorpholin-4-yl]-4-(trifluoromethyl)pyridin-2-yl}-1,3-dihydro-2H-imidazol-2-one]",99%
6,"CCn1cc(Cn2ccn(-c3cc(-c4ccc(F)cc4)cc(C(F)(F)F)c3)c2=O)cn1 [Example 1, 1-[(1-Ethyl-1H-pyrazole-4-yl)methyl]-3-[4′-fluoro-5-(trifluoromethyl)[1,1′-biphenyl]-3-yl]-1,3-dihydro-2H-imidazole-2-one]",99%
7,"CC(C)n1cc(Cn2ccn(-c3cc(N4CCO[C@H](C)C4)cc(C(F)(F)F)c3F)c2=O)cn1 [Example 35, 1-{2-fluoro-5-[(2R)-2-methylmorpholin-4-yl]-3-(trifluoromethyl)phenyl}-3-{[1-(propan-2-yl)-1H-pyrazol-4-yl]methyl}-1,3-dihydro-2H-imidazol-2-one]",99%
8,"CCn1cc(Cn2cc(C)n(-c3cc(OCC4(F)CC4)cc(C(F)(F)F)c3)c2=O)cn1 [Example 56, 1-[(1-ethyl-1H-pyrazol-4-yl)methyl]-3-{3-[(1-fluorocyclopropyl)methoxy]-5-(trifluoromethyl)phenyl}-4-methyl-1,3-dihydro-2H-imidazol-2-one]",98%
9,"CCn1cc(C(C)n2ccn(-c3cc(N4CCO[C@H](C)C4)cc(C(F)(F)F)c3F)c2=O)cn1 (stereo partly drawn) [Example 9, 1-[1-(1-ethyl-1H-pyrazol-4-yl)ethyl]-3-{2-fluoro-5-[(2R)-2-methylmorpholin-4-yl]-3-(trifluoromethyl)phenyl}-1,3-dihydro-2H-imidazol-2-one]",102%

# Other lines, results leading:
row,inhibition at 30 µM,Compound
1,98%,"CCn1cc(Cn2c(C)nn(-c3cc(C(F)(F)F)c(F)c(N4CCC(F)(F)CC4)n3)c2=O)cn1 [Example 154, 2-[6-(4,4-difluoropiperidin-1-yl)-5-fluoro-4-(trifluoromethyl)pyridin-2-yl]-4-[(1-ethyl-1H-pyrazol-4-yl)methyl]-5-methyl-2,4-dihydro-3H-1,2,4-triazol-3-one]"
2,100%,"CCn1cc(Cn2ccn(-c3nc(N4CCOC(C)(C)C4)cc(C(F)(F)F)c3F)c2=O)cn1 [Example 112, 1-[6-(2,2-dimethylmorpholin-4-yl)-3-fluoro-4-(trifluoromethyl)pyridin-2-yl]-3-[(1-ethyl-1H-pyrazol-4-yl)methyl]-1,3-dihydro-2H-imidazol-2-one]"
3,100%,"CCn1cc(Cn2c(C)cn(-c3cc(OC4CCOCC4)cc(C(F)(F)F)c3F)c2=O)cn1 [Example 117, 3-[(1-ethyl-1H-pyrazol-4-yl)methyl]-1-{2-fluoro-5-[(oxan-4-yl)oxy]-3-(trifluoromethyl)phenyl}-4-methyl-1,3-dihydro-2H-imidazol-2-one]"
4,99%,Cc1nn(-c2cc(N3CCOC(C)(C)C3)cc(C(F)(F)F)c2F)c(=O)n1Cc1cnn(C(C)C)c1 [Example 93]
5,99%,"Cc1nn(-c2cc(N(C)C3CCOCC3)cc(C(F)(F)F)c2F)c(=O)n1Cc1cnn(C(C)C)c1 [Example 92, 2-{2-fluoro-5-[methyl(oxan-4-yl)amino]-3-(trifluoromethyl)phenyl}-5-methyl-4-{[1-(propan-2-yl)-1H-pyrazol-4-yl]methyl}-2,4-dihydro-3H-1,2,4-triazol-3-one]"
6,98%,"C=Cc1cc(N2CCO[C@H](C)C2)cc(-n2ccn(Cc3cnn(CC)c3)c2=O)c1F [Example 74, 1-{3-ethenyl-2-fluoro-5-[(2R)-2-methylmorpholin-4-yl]phenyl}-3-[(1-ethyl-1H-pyrazol-4-yl)methyl]-1,3-dihydro-2H-imidazol-2-one]"
7,99%,"CC(C)n1cc(Cn2ccn(-c3nc(NCC4(F)CCC4)cc(C(F)(F)F)c3F)c2=O)cn1 [Example 133, 1-[3-fluoro-6-{[(1-fluorocyclobutyl)methyl]amino}-4-(trifluoromethyl)pyridin-2-yl]-3-{[1-(propan-2-yl)-1H-pyrazol-4-yl]methyl}-1,3-dihydro-2H-imidazol-2-one]"
8,99%,"CCn1cc(Cn2cc(C)n(-c3cc(OCC(F)(F)F)cc(N(C)C4CCOCC4)c3)c2=O)cn1 [Example 88, 1-[(1-ethyl-1H-pyrazol-4-yl)methyl]-4-methyl-3-{3-[methyl(oxan-4-yl)amino]-5-(2,2,2-trifluoroethoxy)phenyl}-1,3-dihydro-2H-imidazol-2-one]"
9,97%,"Cc1c(C)n(-c2cc(C(F)F)cc(N(C)C3CCOCC3)c2)c(=O)n1Cc1cnn(C(C)C)c1 [Example 76, 1-{3-(difluoromethyl)-5-[methyl(oxan-4-yl)amino]phenyl}-4,5-dimethyl-3-{[1-(propan-2-yl)-1H-pyrazol-4-yl]methyl}-1,3-dihydro-2H-imidazol-2-one]"
10,101%,"CCn1cc(Cn2ccn(-c3nc(NCC4(F)CCC4)cc(C(F)(F)F)c3F)c2=O)cn1 [Example 121, 1-[(1-ethyl-1H-pyrazol-4-yl)methyl]-3-[3-fluoro-6-{[(1-fluorocyclobutyl)methyl]amino}-4-(trifluoromethyl)pyridin-2-yl]-1,3-dihydro-2H-imidazol-2-one]"
11,98%,"CCn1cc(Cn2cc(C)n(-c3cc(C4CC4)c(F)c(N4CCO[C@H](C)C4)c3)c2=O)cn1 [Example 160, 3-{3-cyclopropyl-4-fluoro-5-[(2R)-2-methylmorpholin-4-yl]phenyl}-1-[(1-ethyl-1H-pyrazol-4-yl)methyl]-4-methyl-1,3-dihydro-2H-imidazol-2-one]"

# Same assay, conditions: relative value, inhibition rate of Example Compound 2 in Test Example 1 defined as 100%, 30 µM
row,Inhibition Rate at 30 μM,Compound
1,102%,"CCn1cc(Cn2cc(C)n(-c3cc(C(F)(F)F)cc(OCC4CCCO4)n3)c2=O)cn1 (stereo not drawn) [Example 108, 1-[(1-ethyl-1H-pyrazol-4-yl)methyl]-4-methyl-3-{6-[(oxolan-2-yl)methoxy]-4-(trifluoromethyl)pyridin-2-yl}-1,3-dihydro-2H-imidazol-2-one]"

# — US12630534B2 (TAKEDA PHARMACEUTICAL COMPANY LIMITED, priority 2020, dated 2026)
